These results are taken from patent publication US10836763B2, “5 to 7 membered heterocyclic amides as JAK inhibitors” (priority 2018, dated 2020).

One test concerns the target JAK1 (Homo sapiens (Human), UniProt P23458). The test can be described thus: Biochemical JAK kinase assay (LanthaScreen), JAK1. The following applies: ATP at Km 25 μM; pIC50 converted with Cheng-Prusoff. As for the experimental part:
(§1) Assay 1: Biochemical JAK Kinase Assays
(§2) A panel of four LanthaScreen JAK biochemical assays (JAK1, 2, 3 and Tyk2) were carried in a common kinase reaction buffer (50 mM HEPES, pH 7.5, 0.01% Brij-35, 10 mM MgCl2, and 1 mM EGTA). Recombinant GST-tagged JAK enzymes and a GFP-tagged STAT1 peptide substrate were obtained from Life Technologies.
(§3) Serially diluted compounds were pre-incubated with each of the four JAK enzymes and the substrate in white 384-well microplates (Corning) at ambient temperature for 1 h. ATP was subsequently added to initiate the kinase reactions in 10 μL total volume, with 1% DMSO. […] Kinase reactions were allowed to proceed for 1 hour at ambient temperature before a 10 μL preparation of EDTA (10 mM final concentration) and Tb-anti-pSTAT1 (pTyr701) antibody (Life Technologies, 2 nM final concentration) in TR-FRET dilution buffer (Life Technologies) was added. The plates were allowed to incubate at ambient temperature for 1 h before being read on the EnVision reader (Perkin Elmer). Emission ratio signals (520 nm/495 nm) were recorded and utilized to calculate the percent inhibition values based on DMSO and background controls.
(§4) For dose-response analysis, percent inhibition data were plotted vs. compound concentrations, and IC50 values were determined from a 4-parameter robust fit model with the Prism software (GraphPad Software). Results were expressed as pIC50 (negative logarithm of IC50) and subsequently converted to pKi (negative logarithm of dissociation constant, Ki) using the Cheng-Prusoff equation.

In test [1] the test system is IL-2 stimulated STAT5 phosphorylation in Tall-1 human T cell line. The test can be described thus: Inhibition of IL-2 stimulated pSTAT5 in Tall-1 T cells. Type of test: cell-based. The following applies: TALL-1, 0.5 h, IL-2 300 ng/mL, 30 min, pSTAT5 AlphaLisa, read-out: Tall-1 pIC50 (converted). The protocol: Assay 2: Inhibition of IL-2 Stimulated pSTAT5 in Tall-1 T Cells
The potency of test compounds for inhibition of interleukin-2 (IL-2) stimulated STAT5 phosphorylation was measured in the Tall-1 human T cell line (DSMZ) using AlphaLisa.
Phosphorylated STAT5 was measured via the AlphaLISA SureFire Ultra pSTAT5 (Tyr694/699) kit (PerkinElmer).
Compounds were serially diluted in DMSO and dispensed acoustically to empty wells. Assay media (phenol red-free DMEM (Life Technologies) supplemented with 10% FBS (ATCC)) was dispensed (4 μL/well) and plates shaken at 900 rpm for 10 mins. Cells were seeded at 45,000 cells/well in assay media (4 μL/well), and incubated at 37° C., 5% CO2 for 1 hour, followed by the addition of IL-2 (R&D Systems; final concentration 300 ng/mL) in pre-warmed assay media (4 μL) for 30 minutes. […] The lysate was shaken at 900 rpm for 10 minutes at room temperature (RT). Phosphorylated STAT5 was measured via the pSTAT5 AlphaLisa kit (PerkinElmer). Freshly prepared acceptor bead mixture was dispensed onto lysate (5 μL) under green filtered <100 lux light. Plates were shaken at 900 rpm for 2 mins, briefly spun down, and incubated for 2 hrs at RT in the dark. Donor beads were dispensed (5 μL) under green filtered <100 lux light. Plates were shaken at 900 rpm for 2 minutes, briefly spun down, and incubated overnight at RT in the dark. Luminescence was measured with excitation at 689 nm and emission at 570 nm using an EnVision plate reader (PerkinElmer) under green filtered <100 lux light.
To determine the inhibitory potency of test compounds in response to IL-2, the average emission intensity of beads bound to pSTAT5 was measured in a human T cell line. IC50 values were determined from analysis of the inhibition curves of signal intensity versus compound concentration. Data are expressed as pIC50 (negative decadic logarithm IC50) values (mean±standard deviation).
In general terms: In Alpha technology, singlet oxygen from a donor bead excites a nearby acceptor bead.

For test [2], the system named is TSLP-evoked TARC release in human peripheral blood mononuclear cells. Nature of the test: Inhibition of TSLP-evoked TARC release in human peripheral blood mononuclear cells. Type of test: cell-based. The following applies: PBMC from 3 to 5 donors, TSLP 10 ng/mL, 48 hours, TARC ELISA, read-out: pIC50 ± st. dev., inhibition of TSLP-evoked TARC release (converted). The text has this:
Assay 4: Inhibition of TSLP-Evoked TARC Release in Human Peripheral Blood Mononuclear Cells
Thymic stromal lymphopoietin (TSLP) and thymus and activation-regulated chemokine (TARC) are overexpressed in asthmatic airways, and correlate with disease severity. In the lungs, TSLP may be released by bronchial epithelial cells in response to allergens and viral infections. TSLP signals through an IL-7Rα/TSLPR heterodimer found in a broad range of tissues and cell types, including epithelial cells, endothelial cells, neutrophils, macrophages, and mast cells. The binding of TSLP to its receptor induces a conformational change that activates JAK1 and JAK2 to phosphorylate various transcription factors, including STAT3 and STAT5. In immune cells, this triggers a cascade of intracellular events that result in cell proliferation, anti-apoptosis, dendritic cell migration, and production of Th2 cytokines and chemokines. In peripheral blood mononuclear cells (PBMC), TSLP has a proinflammatory effect by activating myeloid dendritic cells to attract and stimulate T cells, a process mediated by the chemoattractant TARC.
The potencies of the test compounds were measured for inhibition of TARC release.
PBMC aliquots (previously isolated from whole blood and frozen in aliquots at −80° C.) from 3 to 5 donors were thawed at 37° C. and added dropwise to 40 mL pre-warmed, sterile-filtered, complete RPMI media in 50 mL Falcon tubes. Cells were pelleted and resuspended in complete media at 2.24×10^6 cells/mL. Cells were seeded at […] (190,000 cells) per well in a tissue culture treated 96-well flat bottom microplate. Cells were allowed to rest for 1 hour at 37° C. with 5% CO2.
Compounds were received as 10 mM stock solutions in DMSO. 3.7-fold serial dilutions were performed to generate 9 concentrations of test compound in DMSO at 300× the final assay test concentration. […] After the 1 hour rest period, 95 µL of 2× compound was added to each well of PBMC, for a final assay concentration range of 33.33 μM to […]. 95 μL of 0.2% DMSO in complete media was added to the untreated control wells. Cells were pre-treated with compound for 1 hour at 37° C. with 5% CO2 prior to stimulation.
Recombinant human TSLP protein was reconstituted at 10 μg/mL in sterile DPBS with 0.1% BSA and stored in aliquots at −20° C. Immediately prior to use, an aliquot was thawed and prepared at 20× the final assay concentration in complete media. 10 μL of 20×TSLP was added to each well of PBMC, for a final assay concentration of 10 ng/mL. 10 μL of complete media was added to the unstimulated control wells. Cells were stimulated in the presence of compound for 48 hours at 37° C. with 5% CO2.
Following stimulation, the cell culture supernatants were harvested and TARC levels were detected by enzyme-linked immunosorbent assay (ELISA), using Human CCL17/TARC Quantikine ELISA Kit (R&D Systems # DDN00) according to the manufacturer's instructions.
For dose response analysis, the log [test compound (M)] was plotted versus the percent response values for each donor, and IC50 values were determined using a nonlinear regression analysis with GraphPad Prism Software using the 4-parameter sigmoidal dose-response algorithm with variable slope. Data are expressed as mean pIC50 (negative decadic logarithm IC50) values calculated from pIC50 values of individual donors and rounded to one decimal place.
For orientation: In an ELISA, binding on a coated surface is turned into a signal by an enzyme label.

A further test addresses JAK3 (Homo sapiens (Human), UniProt P52333). The test is classed as biochemical. As for the experimental part: as §1, §2, §3, §4

Sequence of JAK3 (P52333 whole entry): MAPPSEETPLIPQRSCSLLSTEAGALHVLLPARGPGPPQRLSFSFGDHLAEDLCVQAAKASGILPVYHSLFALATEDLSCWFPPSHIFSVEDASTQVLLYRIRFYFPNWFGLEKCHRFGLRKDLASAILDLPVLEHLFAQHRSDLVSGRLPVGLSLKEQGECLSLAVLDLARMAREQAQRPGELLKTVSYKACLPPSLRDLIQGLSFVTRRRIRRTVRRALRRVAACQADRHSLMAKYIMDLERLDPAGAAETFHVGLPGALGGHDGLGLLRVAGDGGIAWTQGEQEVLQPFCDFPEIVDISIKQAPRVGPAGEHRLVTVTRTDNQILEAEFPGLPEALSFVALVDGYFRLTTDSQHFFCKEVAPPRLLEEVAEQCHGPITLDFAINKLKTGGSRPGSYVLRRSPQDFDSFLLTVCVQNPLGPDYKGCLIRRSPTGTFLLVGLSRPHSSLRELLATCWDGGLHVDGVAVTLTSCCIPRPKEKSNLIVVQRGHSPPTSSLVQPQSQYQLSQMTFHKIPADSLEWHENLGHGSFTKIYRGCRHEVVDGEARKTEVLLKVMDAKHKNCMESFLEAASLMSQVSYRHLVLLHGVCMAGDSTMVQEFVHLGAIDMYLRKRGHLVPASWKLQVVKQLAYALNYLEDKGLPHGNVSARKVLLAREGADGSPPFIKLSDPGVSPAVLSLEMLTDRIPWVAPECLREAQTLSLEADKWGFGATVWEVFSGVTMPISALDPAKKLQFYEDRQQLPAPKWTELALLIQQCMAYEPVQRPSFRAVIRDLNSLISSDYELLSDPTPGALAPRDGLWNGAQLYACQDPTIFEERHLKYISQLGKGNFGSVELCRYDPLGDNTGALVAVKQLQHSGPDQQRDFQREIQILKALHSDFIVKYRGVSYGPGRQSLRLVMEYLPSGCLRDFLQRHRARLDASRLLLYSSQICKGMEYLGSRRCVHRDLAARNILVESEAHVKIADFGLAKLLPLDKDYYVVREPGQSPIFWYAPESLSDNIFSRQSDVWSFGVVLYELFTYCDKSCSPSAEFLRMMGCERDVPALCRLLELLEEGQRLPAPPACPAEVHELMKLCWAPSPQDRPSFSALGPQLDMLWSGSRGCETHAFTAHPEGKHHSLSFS
Sequence of JAK1 (P23458 whole entry): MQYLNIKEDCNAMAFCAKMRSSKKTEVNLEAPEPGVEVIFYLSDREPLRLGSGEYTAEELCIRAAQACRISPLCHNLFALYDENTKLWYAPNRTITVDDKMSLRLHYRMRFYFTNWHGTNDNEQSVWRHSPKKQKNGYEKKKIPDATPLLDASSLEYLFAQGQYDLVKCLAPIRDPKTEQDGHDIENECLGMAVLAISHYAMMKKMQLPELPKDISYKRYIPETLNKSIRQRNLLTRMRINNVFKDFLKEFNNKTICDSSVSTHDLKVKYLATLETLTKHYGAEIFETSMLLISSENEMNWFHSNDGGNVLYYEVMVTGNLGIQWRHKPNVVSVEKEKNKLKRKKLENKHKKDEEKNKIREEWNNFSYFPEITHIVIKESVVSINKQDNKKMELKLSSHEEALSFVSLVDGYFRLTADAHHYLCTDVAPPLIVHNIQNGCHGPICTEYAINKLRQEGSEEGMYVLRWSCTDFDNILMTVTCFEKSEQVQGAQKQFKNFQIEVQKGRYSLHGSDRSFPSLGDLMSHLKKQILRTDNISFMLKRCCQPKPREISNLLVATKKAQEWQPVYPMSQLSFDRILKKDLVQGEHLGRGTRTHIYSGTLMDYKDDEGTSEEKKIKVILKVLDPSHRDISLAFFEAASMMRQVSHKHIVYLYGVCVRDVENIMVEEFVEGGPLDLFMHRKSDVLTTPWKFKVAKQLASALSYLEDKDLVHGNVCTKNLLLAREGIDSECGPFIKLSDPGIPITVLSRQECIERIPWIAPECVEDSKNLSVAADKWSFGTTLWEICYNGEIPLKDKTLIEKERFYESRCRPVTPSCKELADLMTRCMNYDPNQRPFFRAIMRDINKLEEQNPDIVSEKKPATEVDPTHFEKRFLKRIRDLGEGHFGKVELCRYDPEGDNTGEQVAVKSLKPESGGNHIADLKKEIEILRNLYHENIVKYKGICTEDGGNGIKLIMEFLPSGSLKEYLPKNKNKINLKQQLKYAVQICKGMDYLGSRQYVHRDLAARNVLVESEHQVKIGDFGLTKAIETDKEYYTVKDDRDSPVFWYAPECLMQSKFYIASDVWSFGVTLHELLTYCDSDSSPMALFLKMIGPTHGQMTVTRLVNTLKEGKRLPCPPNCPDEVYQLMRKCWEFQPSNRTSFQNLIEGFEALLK

Consider `CCc1cc(O)c(F)cc1-c1ccc2c(-c3nc4c([nH]3)CN(C)[C@H](C(=O)N3CCN(CCO)C[C@H]3C)C4)n[nH]c2c1` [Compound C-5, ((S)-2-(6-(2-ethyl-5-fluoro-4-hydroxyphenyl)-1H-indazol-3-yl)-5-methyl-4,5,6,7-tetrahydro-3H-imidazo[4,5-c]pyridin-6-yl)((R)-4-(2-hydroxyethyl)-2-methyl-piperazin-1-yl)methanone, reference compound], for which, at JAK1, the “JAK1 pKi” value amounted to 10.1. Moreover, the results for the IC50 in test [1] and in test [2] were 2.51 nM and 50.1 nM, respectively. In addition, the “JAK3 PKi” value at JAK3 is recorded as 9.9.
